According to ChEMBL document CHEMBL3885881, “DrugMatrix”:

Species on record: Rattus norvegicus
Experiment: DrugMatrix - Regimen: Daily Repeat
Type: toxicity, organism-based, Sprague-Dawley
Design: regimen Daily Repeat, gender Male, age 6-8 weeks
Details: in vivo, po, 300 mg/kg, route oral GAVAGE, vehicle .5 % CMC; for ABSOLUTE BASOPHIL / ABSOLUTE EOSINOPHIL / ABSOLUTE LYMPHOCYTE / ABSOLUTE MONOCYTE / ABSOLUTE SEGMENTED NEUTROPHIL / BASOPHIL / EOSINOPHIL / ERYTHROCYTE COUNT / HEMATOCRIT / HEMOGLOBIN / LEUKOCYTE COUNT / LYMPHOCYTE / MEAN CORPUSCULAR HEMOGLOBIN / MEAN CORPUSCULAR HEMOGLOBIN CONCENTRATION / MEAN CORPUSCULAR VOLUME / MONOCYTE / NEUTROPHIL / NUCLEATED RED BLOOD CELLS / PLATELET COUNT: tissue Blood; for ALANINE AMINOTRANSFERASE / ALBUMIN / ALKALINE PHOSPHATASE / ASPARTATE AMINOTRANSFERASE / BLOOD UREA NITROGEN / CARBON DIOXIDE / CHLORIDE / CHOLESTEROL / CREATINE PHOSPHOKINASE / CREATININE / GLUCOSE / LACTATE DEHYDROGENASE / LIPASE / PHOSPHORUS / POTASSIUM / SODIUM / TOTAL BILIRUBIN / TOTAL PROTEIN / URIC ACID: tissue Plasma
[1] = 72 h, dose level M1, time 3 day
[2] = 120 h, dose level M1, time 5 day

In the case of COc1ccc(/C=C/C(=O)Nc2ccccc2C(=O)O)cc1OC, the “ABSOLUTE BASOPHIL” value [1] is reported as 0 CELLS/uL, the “ABSOLUTE EOSINOPHIL” value [1] is reported as 0 CELLS/uL and the “ABSOLUTE LYMPHOCYTE” value [1] is reported as 15435.67 CELLS/uL. For the same compound, the “ABSOLUTE MONOCYTE” value [1] was 65.33 CELLS/uL, the “ABSOLUTE SEGMENTED NEUTROPHIL” value [1] was 1499 CELLS/uL and the BASOPHIL [1] was 0%. For the same compound, the EOSINOPHIL [1] was 0%, the “ERYTHROCYTE COUNT” value [1] was 5.52 x10E6/uL and the HEMATOCRIT [1] was 35.2%. For the same compound, the HEMOGLOBIN [1] was 13.97 G/DL, the “LEUKOCYTE COUNT” value [1] was 17 x10E3/uL and the LYMPHOCYTE [1] was 90.67%. For the same compound, the “MEAN CORPUSCULAR HEMOGLOBIN” value [1] was 25.3 pg, the “MEAN CORPUSCULAR HEMOGLOBIN CONCENTRATION” value [1] was 39.67 G/DL and the “MEAN CORPUSCULAR VOLUME” value [1] was 63.73 fL. The MONOCYTE [1] was 0.33%, the NEUTROPHIL [1] was 9% and the “NUCLEATED RED BLOOD CELLS” value [1] was 0 /100WBC. For the same compound, the “PLATELET COUNT” value [1] was 1287.67 x10E3/uL, the “ALANINE AMINOTRANSFERASE” value [1] was 54.67 u/L and the ALBUMIN [1] was 4.27 G/DL. For the same compound, the “ALKALINE PHOSPHATASE” value [1] was 401.67 u/L, the “ASPARTATE AMINOTRANSFERASE” value [1] was 92.67 u/L and the “BLOOD UREA NITROGEN” value [1] was 14 mg/dL. For the same compound, the “CARBON DIOXIDE” value [1] was 24 mmol/L, the CHLORIDE [1] was 103 MEQ/L and the CHOLESTEROL [1] was 78.33 mg/dL. The “CREATINE PHOSPHOKINASE” value [1] was 294 u/L, the CREATININE [1] was 0.15 mg/dL and the GLUCOSE [1] was 150.67 mg/dL. The “LACTATE DEHYDROGENASE” value [1] was 445 u/L, the LIPASE [1] was 9 u/L and the PHOSPHORUS [1] was 13.6 mg/dL. For the same compound, the POTASSIUM [1] was 6.91 MEQ/L, the SODIUM [1] was 145.8 MEQ/L and the “TOTAL BILIRUBIN” value [1] was 0.17 mg/dL. For the same compound, the “TOTAL PROTEIN” value [1] was 6 G/DL, the “URIC ACID” value [1] was 1.4 mg/dL and the “ABSOLUTE BASOPHIL” value [2] was 0 CELLS/uL. The “ABSOLUTE EOSINOPHIL” value [2] was 240.33 CELLS/uL, the “ABSOLUTE LYMPHOCYTE” value [2] was 16960.67 CELLS/uL and the “ABSOLUTE MONOCYTE” value [2] was 310.67 CELLS/uL. The “ABSOLUTE SEGMENTED NEUTROPHIL” value [2] was 988.33 CELLS/uL, the BASOPHIL [2] was 0% and the EOSINOPHIL [2] was 1.33%. The “ERYTHROCYTE COUNT” value [2] was 5.25 x10E6/uL, the HEMATOCRIT [2] was 33.97% and the HEMOGLOBIN [2] was 13.6 G/DL. For the same compound, the “LEUKOCYTE COUNT” value [2] was 18.5 x10E3/uL, the LYMPHOCYTE [2] was 91.67% and the “MEAN CORPUSCULAR HEMOGLOBIN” value [2] was 25.93 pg. For the same compound, the “MEAN CORPUSCULAR HEMOGLOBIN CONCENTRATION” value [2] was 40.07 G/DL, the “MEAN CORPUSCULAR VOLUME” value [2] was 64.73 fL and the MONOCYTE [2] was 1.67%. The NEUTROPHIL [2] was 5.33%, the “NUCLEATED RED BLOOD CELLS” value [2] was 0 /100WBC and the “PLATELET COUNT” value [2] was 1233.33 x10E3/uL. The “ALANINE AMINOTRANSFERASE” value [2] was 54.33 u/L, the ALBUMIN [2] was 4.33 G/DL and the “ALKALINE PHOSPHATASE” value [2] was 383 u/L. The “ASPARTATE AMINOTRANSFERASE” value [2] was 84.33 u/L, the “BLOOD UREA NITROGEN” value [2] was 18 mg/dL and the “CARBON DIOXIDE” value [2] was 21 mmol/L. For the same compound, the CHLORIDE [2] was 105 MEQ/L, the CHOLESTEROL [2] was 63 mg/dL and the “CREATINE PHOSPHOKINASE” value [2] was 256.33 u/L. The CREATININE [2] was 0.21 mg/dL, the GLUCOSE [2] was 156.33 mg/dL and the “LACTATE DEHYDROGENASE” value [2] was 285 u/L. It also gave an LIPASE [2] of 8 u/L, a PHOSPHORUS [2] of 11.8 mg/dL and a POTASSIUM [2] of 6.72 MEQ/L. The SODIUM [2] was 146.17 MEQ/L, the “TOTAL BILIRUBIN” value [2] was 0.2 mg/dL and the “TOTAL PROTEIN” value [2] was 5.93 G/DL. The “URIC ACID” value [2] was 1.3 mg/dL.
